Measured values published in ChEMBL document CHEMBL1125625, “Antinociceptive (aminoalkyl)indoles” (J Med Chem, 1991).

Key:
Format in all cases: functional
[1] = test system: Mus musculus; test: Acetylcholine writhing inhibitory activity was measured in mouse (in vivo) by iv administration
[2] = test system: Mus musculus; test: Acetylcholine writhing inhibitory activity for the compound was measured in mouse (in vivo) by peroral administration at 1000 uM
[3] = test system: Mus musculus; test: Acetylcholine writhing inhibitory activity for the compound was measured in vivo in mouse by peroral administration at 20 uM
[4] = test system: Mus musculus; test: Acetylcholine writhing inhibitory activity measured in vivo in mouse by peroral administration; conditions: po
[5] = test system: Mus musculus; test: Acetylcholine writhing inhibitory activity for the compound was measured in mouse (in vivo) by iv administration at 30 uM
[6] = test system: Mus musculus; test: Acetylcholine writhing inhibitory activity for the compound was measured in vivo in mouse by peroral administration at 238 uM
[7] = test system: Mus musculus; test: Acetylcholine writhing inhibitory activity for the compound was measured in vivo in mouse by peroral administration at 300 uM
[8] = test system: Rattus norvegicus; test: Intra arterial bradykinin activity for the compound was measured in rat (in vivo) by peroral administration
[9] = test system: Rattus norvegicus; test: Adjuvant arthritis paw flexion activity for the compound was measured in rat (in vivo) by peroral administration; conditions: po
[10] = test system: Rattus norvegicus; test: Acetic acid writhing inhibitory activity for the compound was measured in rat (in vivo) by peroral administration; conditions: po
[11] = test system: Mus musculus; test: Acetylcholine writhing inhibitory activity for the compound was measured in vivo in mouse by peroral administration at 100 uM
[12] = test system: Rattus norvegicus; test: Randall-Selitto activity for the compound was measured in rat (in vivo) by peroral administration; conditions: po, read-out: MED

Structure (SMILES) | ED50 [4] | also measured
Cc1c(C(=O)c2cccc3ccccc23)c2ccccc2n1CCN1CCOC(O)C1 (stereo unspecified) |  | ED50 [1]: 9.7 mg/kg; Inhibition [2]: 50%
Cc1cccc(C(=O)c2c(C)n(CCN3CCOCC3)c3ccccc23)c1 |  | Inhibition [3]: 20%
CSc1ccc(C(=O)c2c(C)n(CCN3CCOCC3)c3ccccc23)cc1 | 22 mg/kg | 
COc1ccc(C(=O)c2c(C)n(CCN3CCNCC3)c3ccccc23)cc1 | 21 mg/kg | 
O=C(c1cccc2ccccc12)c1cn(CCN2CCOCC2)c2ccccc12 | 23 mg/kg | ED50 [1]: 0.12 mg/kg
COc1ccc(C(=O)c2c(C)n(CCN3CCCC(O)C3)c3ccccc23)cc1 (stereo unspecified) | 26 mg/kg | 
COc1ccc(C(=O)c2c(C)n(CCN(C)C)c3ccccc23)cc1 | 65 mg/kg | 
CC(C(=O)O)n1cc(C(=O)c2ccccc2F)c2ccccc21 (stereo unspecified) | 8 mg/kg | 
Cc1c(C(=O)c2csc3ccccc23)c2ccccc2n1CCN1CCOCC1 |  | Inhibition [5]: 60%
COc1ccc(C(=O)c2c(C)n(CCN3CCC(O)CC3)c3ccccc23)cc1 | 68 mg/kg | 
Cc1c(C(=O)c2ccccc2F)c2ccccc2n1C(C)C(=O)O (stereo unspecified) | 12 mg/kg | 
CC(CN1CCOCC1)n1cc(C(=O)c2ccccc2F)c2ccccc21 (stereo unspecified) | 19 mg/kg | 
Cc1c(C(=O)c2ccc(F)cc2)c2ccccc2n1CCN1CCOCC1 |  | Inhibition [6]: 60%
COc1ccc(C(=O)c2c(C)n(CCN3CCCCC3)c3ccccc23)cc1 |  | Inhibition [7]: 71%
Cc1c(C(=O)c2ccccc2F)c2ccccc2n1[C@H](C)CN1CCOCC1 | 9 mg/kg | 
C[C@@H](C(=O)O)n1cc(C(=O)c2ccccc2F)c2ccccc21 |  | ED50 [1]: 38 mg/kg

Structure (SMILES) | ED50 [4] | also measured
C[C@H](CN1CCOCC1)n1cc(C(=O)c2ccccc2F)c2ccccc21 | 11 mg/kg | 
C[C@H](C(=O)O)n1cc(C(=O)c2ccccc2F)c2ccccc21 |  | ED50 [1]: 5 mg/kg
C[C@@H](CN1CCOCC1)n1cc(C(=O)c2ccccc2F)c2ccccc21 | 48 mg/kg | 
CCNCCn1c(C)c(C(=O)c2ccc(OC)cc2)c2ccccc21 | 46 mg/kg | 
CCc1c(C(=O)c2ccc(OC)cc2)c2ccccc2n1CCN1CCOCC1 | 82 mg/kg | 
COc1ccc(C(=O)c2c(C)n(CCCCCCN3CCOCC3)c3ccccc23)cc1 | 28 mg/kg | 
Cc1c(C(=O)c2cccc3ccccc23)c2ccccc2n1CCN1CCOCC1 |  | ED50 [1]: 0.19 mg/kg; ED50 [8]: 52 mg/kg; ED50 [9]: 30 mg/kg; ED50 [10]: 38 mg/kg
COc1ccc(C(=O)c2c(C)n(CC(=O)O)c3ccccc23)cc1 | 173 mg/kg | 
CCN(CC)CCn1c(C)c(C(=O)c2ccc(OC)cc2)c2ccccc21 | 50 mg/kg | 
Cc1c(C(=O)c2ccccc2F)c2ccccc2n1[C@@H](C)CN1CCOCC1 | 37 mg/kg | 
Cc1c(C(=O)c2cccc(F)c2)c2ccccc2n1CCN1CCOCC1 |  | Inhibition [11]: 30%
COc1ccc(C(=O)c2c(C)n(CCCCCN3CCOCC3)c3ccccc23)cc1 | 15 mg/kg | 
Cc1c(C(=O)c2ccccc2F)c2ccccc2n1CCN1CCOCC1 | 79 mg/kg | 
COc1ccc(C(=O)c2c(C)n(CCCCN3CCOCC3)c3ccccc23)cc1 | 56 mg/kg | 
O=C(c1ccccc1)c1ccc2n1CCC2C(=O)O (stereo unspecified) [KETOROLAC] | 1.1 mg/kg | 
COc1ccc(C(=O)c2c(C)n(CCN3CCOCC3)c3ccccc23)cc1 [PRAVADOLINE] | 41 mg/kg | ED50 [8]: 120 mg/kg; ED50 [9]: 100 mg/kg; ED50 [10]: 15 mg/kg; minimal effective dose [12]: 1 mg/kg
